The source of these data is patent US6481154B1, “Method of large-scale propagation of trees of genus Swietenia” (Sumitomo Forestry Co., Ltd., priority 2000, dated 2002).

The experiment concerns terminal buds of Swietenia macrophylla. Description: Induction of multiple shoots from terminal buds on modified B5 medium. The class given is cell-based. The conditions noted are these: IBA 0 mg/l. The protocol: Terminal buds were excised from mature trees of Swietenia macrophylla and subjected to surface sterilization in 70% ethanol for 30 seconds and then in 2% sodium hypochlorite for 6 minutes, washed several times with sterilized water and dried on a sterilized filter paper.
To a modified B5 medium (which was a B5 medium amounts of all the components were each made a half were added 30 g/l of sucrose, and 0 to 0.02 mg/l of IBA and 0.02 to 1.0 mg/l of BAP as plant growth regulators, followed by pH adjustment to 5.7 and sterilization. The medium so prepared was used as a multiple shoots-inducing medium, and was used at a culturing temperature of 26±2° C. under illumination of fluorescent lamps for 16 hours per day (3,000 to 9,000 Lux). One to 3 months after the start of culturing, multiple shoots were induced.

For `c1ccc(CNc2ncnc3[nH]cnc23)cc1` [BAP, benzylaminopurine], the “Number of formed multiple shoots/Number of total tested terminal buds” value by setting is: (BAP 0.02 mg/l) 1/20; (BAP 0.2 mg/l) 5/20; (BAP 1.0 mg/l) 8/20.
